These results are taken from patent publication US11471503B2, “Use of KOR agonist in combination with MOR agonist in preparing drug for treating pain” (JIANGSU HENGRUI MEDICINE CO., LTD., priority 2017, dated 2022).

The structures appear in SMILES notation. Where a SMILES comes first, the peptide text is derived from it. [ ]: non-standard residue; d: D form. The star is where a group is joined. Gly(N-(2R-Ph-propyl)) = C[C@@H](CNCC(=O)O)c1ccccc1; Piperidin1yl(4-NH2,4-COOH) = NC1(C(=O)O)CCN(*)CC1

For this experiment, the system named is incision pain in rats. Kind of experiment: Incision pain test in rats, mechanical pain threshold by Electronic Von Frey. The experiment is classed as in vivo, rat (male Wistar). Particulars: for increase of tenderness threshold compared with the model group: i.v., 30 min after injection; for tenderness threshold: tail vein i.v. 24 h after incision, measured 30 min after injection, model group 8.91 g. The protocol: Example 3. Treatment Effect of the Combination of the KOR Agonist and the MOR Agonist of the Present Invention on Incision Pain in Rats
Compound 5 (prepared according to the method described in Example 1), and compound 20 (prepared according to the method described in Example 2). The compound dose was calculated on bases.
Experimental male Wistar rats were purchased from Shanghai Slac Laboratory Animal Co., Ltd. The rats weighed 140-160 g when purchased, and were fed at 5 rats/cage, under a condition of 12/12 hours light/dark cycle adjustment, a constant temperature of 23±1° C., a humidity of 50-60%, and free access to food and water. After purchase, the animals were subjected to an adaptive feeding for more than 3 days before the experiment was started.
Electronic Von Frey: UGO BASILE, type 38450.
Both compound 5 and compound 20 were formulated with normal saline.
The rats were randomly divided into the following groups according to the body weight: blank control group (n=10), model group (n=10) and drug-administered group (n=50). The drug-administered group was divided into the following groups: compound 20-0.03 mg/kg group (n=10), compound 5-0.3 mg/kg group (n=10), compound 5-0.1 mg/kg+compound 20-0.03 mg/kg group (n=10), compound 5-0.3 mg/kg+compound 20-0.03 mg/kg group (n=10), and compound 5-1 mg/kg+compound 20-0.03 mg/kg group (n=10). The model group and drug-administered group were subjected to an incision surgery. During the surgery, the rats were anesthetized with isoflurane. An incision (1 cm long) passing through the skin and fascia was made with a No. 10 surgical blade in the middle of the left hind paw. The skin was sutured with a 3-0 sterile silk surgical suture. The injured site was disinfected with antibiotic ointment and iodophor. The animals were returned to their original place to recover overnight. After 24 hours, the drug was injected through the tail vein, and the blank control group and the model group were administrated with normal saline two times with an interval of 15 minutes. The group administered with compound 20 alone was intravenously injected with the corresponding dose of compound 20 and the blank solvent for formulating compound 5. The group administered with compound 5 alone was intravenously injected with the corresponding dose of compound 5 and the blank solvent for formulating compound 20. […] The mechanical pain threshold of each group was measured by the Electronic Von Frey 30 minutes after the injection to evaluate the analgesic effect of the drug on the surgical incision pain and the intensity thereof.
The experimental data were expressed as mean±standard deviation (S.D.). […]

Turning to `CC(C)C[C@@H](NC(=O)[C@@H](Cc1ccccc1)NC(=O)CNC[C@H](C)c1ccccc1)C(=O)N[C@H](CCCCN)C(=O)N1CCC(N)(C(=O)O)CC1` [compound 5, 4-Amino-1-((2R,5R,8R,14R)-2-(4-aminobutyl)-8-benzyl-5-isobutyl-4,7,10-trioxo-14-phenyl-3,6,9,12-tetraazapentadecan-1-oyl)piperidine-4-carboxylic acid] (H-[Gly(N-(2R-Ph-propyl))][dF][dL][dK]-{Piperidin1yl(4-NH2,4-COOH)}), under “compound 5 0.3 mg/kg alone”, the “increase of tenderness threshold compared with the model group” value is recorded as 101.1% and the tenderness threshold is 17.92 g.

Consider `CCO[C@H]1CC[C@H](NCC[C@@]2(c3ccccn3)CCOC3(CCCC3)C2)c2ccccc21` [compound 20, (1S,4S)-4-Ethoxy-N-(2-((R)-9-(pyridin-2-yl)-6-oxaspiro[4.5]decan-9-yl)ethyl)-1,2,3,4-tetrahydronaphthalen-1-amine], for which the “increase of tenderness threshold compared with the model group” value (compound 20 0.03 mg/kg alone) was found to be 62.3%. In addition, the tenderness threshold (compound 20 0.03 mg/kg alone, blank control 14.48 g) was found to be 14.46 g.
